Where a name gives a salt, the structure may show the parent alone. Read-outs that look alike come from different tables or passages of the source.

Data on 8 molecules can be found in patent publication US6642398B2, “Mono-and disubstituted 3-propyl gamma-aminobutyric acids” (Warner-Lambert Company, priority 1999, dated 2003).

Data set [1] has as its system DBA/2 mice. The data set is described as follows: Anticonvulsant % Protect (DBA2 mouse model of anticonvulsant efficacy). As to conditions: for responders at 30 mg/kg: Mus musculus. Format: in vivo. As for the experimental part:
All procedures were carried out in compliance with the NIH Guide for the Care and Use of Laboratory Animals under a protocol approved by the Parke-Davis Animal Use Committee. Male DBA/2 mice, 3 to 4 weeks old were obtained from Jackson Laboratories, Bar Harbour, Me. Immediately before anticonvulsant testing, mice were placed upon a wire mesh, 4 inches square, suspended from a steel rod. The square was slowly inverted through 180° and mice observed for 30 seconds. Any mouse falling from the wire mesh was scored as ataxic (Coughenour L. L., McLean J. R., Parker R. B., “A new device for the rapid measurement of impaired motor function in mice,” Pharm. Biochem. Behav., 1977;6(3):351-3). Mice were placed into an enclosed acrylic plastic chamber (21 cm height, approximately 30 cm diameter) with a high-frequency speaker (4 cm diameter) in the center of the top lid. An audio signal generator (Protek model B-810) was used to produce a continuous sinusoidal tone that was swept linearly in frequency between 8 kHz and 16 kHz once each 10 msec. The average sound pressure level (SPL) during stimulation was approximately 100 dB at the floor of the chamber. Mice were placed within the chamber and allowed to acclimatize for one minute. DBA/2 mice in the vehicle-treated group responded to the sound stimulus (applied until tonic extension occurred, or for a maximum of 60 sec) with a characteristic seizure sequence consisting of wild running followed by clonic seizures, and later by tonic extension, and finally by respiratory arrest and death in 80% or more of the mice. In vehicle-treated mice, the entire sequence of seizures to respiratory arrest lasts approximately 15 to 20 seconds. The incidence of all the seizure phases in the drug-treated and vehicle-treated mice was recorded, and the occurrence of tonic seizures were used for calculating anticonvulsant ED50 values by probit analysis (Litchfield J. T., Wilcoxon F. “A simplified method for evaluating dose-effect experiments,” J. Pharmacol., 1949;96:99-113). Mice were used only once for testing at each dose point. Groups of DBA/2 mice (n=5-10 per dose) were tested for sound-induced seizure responses 2 hours (previously determined time of peak effect) after given drug orally. All drugs in the present study were dissolved in distilled water and given by oral gavage in a volume of 10 mL/kg of body weight. Compounds that are insoluble will be suspended in 1% carboxymethocellulose. Doses are expressed as weight of the active drug moiety.

Where [2] appears, read: 30 mg/kg PO, 1 h, read-out: Anticonvulsant % Protect 1 h.
Where [3] appears, read: 30 mg/kg PO, 2 h, read-out: Anticonvulsant % Protect 2 h.

As to `CCC(CC)CC(CN)CC(=O)O` (stereo not drawn), the “Anticonvulsant % Protect 2 hr” value in data set [1] (Table 1, 2 hr) is recorded as 20%. For orientation: melting point means the temperature of the solid-liquid transition. The molecule `CCCC(C(C)C)C(CN)CC(=O)O` (stereo not drawn) (as salt: HCl) [3-aminomethyl-4-isopropyl-heptanoic acid, 3-Aminomethyl-4-isopropyl-heptanoic acid] came in with a melting point of 160 to 170 °C. Take `CC(C)[C@@H](C)[C@H](CN)CC(=O)O` [(3R,4R)-3-Aminomethyl-4,5-dimethyl-hexanoic acid]: the responders at 30 mg/kg in data set [1] (setting [2]) and in data set [1] (setting [3]) was 100% throughout. As for `CC(C)[C@H](C)[C@H](CN)CC(=O)O` [(3R,4S)-3-Aminomethyl-4,5-dimethyl-hexanoic acid], the responders at 30 mg/kg in data set [1] (setting [2]) amounted to 20%; in data set [1] (setting [3]) it was 0%. In the same order, the values of `CC(C)[C@@H](C)[C@@H](CN)CC(=O)O` [(3S,4R)3-Aminomethyl 4,5-dimethyl-hexanoic acid] are 20% and 20%.

Regarding `CC[C@@H](C)C[C@H](CN)CC(=O)O` [(3S,5R)-3-Aminomethyl-5-methyl-heptanoic acid], the responders at 30 mg/kg in data set [1] (setting [2]) worked out at 80%. As for `CC[C@H](C)C[C@H](CN)CC(=O)O` [(3S,5S)-3-Aminomethyl-5-methyl-heptanoic acid], the responders at 30 mg/kg in data set [1] (setting [2]) and in data set [1] (setting [3]) was 0% throughout. In the case of `CC(C)C[C@H](CN)CC(=O)O` [Pregabalin, (S)-3-(Aminomethyl)-5-methylhexanoic acid, reference compound], the “Anticonvulsant % Protect 2 h” value in data set [1] (30 mg/kg PO, 2 h) amounted to 100%.
